Measurements: publication PMC11946580, “In Vitro Enzymatic and Computational Assessments of Pyrazole–Isatin and Pyrazole–Indole Conjugates as Anti-Diabetic, Anti-Arthritic, and Anti-Inflammatory Agents” (Pharmaceutics, 2025)

Experiments:
COX-1 = biological target: T1, COX-1 (Ovis aries, UniProt P05979); assay: COX-1 inhibition assay (Cayman kit); conditions: for COX-1 Inhibition (%): mean ± SE, three replicates; as to COX-1 Inhibition (%): test concentration or dose not given here
T1 sequence (P05979 25-600): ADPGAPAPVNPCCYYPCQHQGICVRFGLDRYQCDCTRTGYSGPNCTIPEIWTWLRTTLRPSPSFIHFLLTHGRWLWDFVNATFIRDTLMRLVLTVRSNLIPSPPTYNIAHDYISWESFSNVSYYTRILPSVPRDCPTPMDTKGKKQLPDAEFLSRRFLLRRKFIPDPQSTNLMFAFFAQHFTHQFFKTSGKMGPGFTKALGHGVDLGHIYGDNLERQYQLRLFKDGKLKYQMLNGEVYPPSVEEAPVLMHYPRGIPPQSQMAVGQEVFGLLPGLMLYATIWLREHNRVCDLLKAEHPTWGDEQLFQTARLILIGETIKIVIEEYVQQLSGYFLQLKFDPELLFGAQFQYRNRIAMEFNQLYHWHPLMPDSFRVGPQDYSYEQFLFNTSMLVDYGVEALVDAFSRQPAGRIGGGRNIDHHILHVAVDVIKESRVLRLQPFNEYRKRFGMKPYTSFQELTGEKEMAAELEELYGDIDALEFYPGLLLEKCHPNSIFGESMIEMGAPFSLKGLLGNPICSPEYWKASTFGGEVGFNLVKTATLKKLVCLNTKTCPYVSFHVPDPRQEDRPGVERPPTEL

COX-2 = biological target: T2, COX-2 (Homo sapiens, UniProt P35354); assay: COX-2 inhibition assay (Cayman kit); assay type: biochemical; conditions: mean ± SE, three replicates
T2 construct: purchased Cayman 560131
T2 sequence (P35354 18-604): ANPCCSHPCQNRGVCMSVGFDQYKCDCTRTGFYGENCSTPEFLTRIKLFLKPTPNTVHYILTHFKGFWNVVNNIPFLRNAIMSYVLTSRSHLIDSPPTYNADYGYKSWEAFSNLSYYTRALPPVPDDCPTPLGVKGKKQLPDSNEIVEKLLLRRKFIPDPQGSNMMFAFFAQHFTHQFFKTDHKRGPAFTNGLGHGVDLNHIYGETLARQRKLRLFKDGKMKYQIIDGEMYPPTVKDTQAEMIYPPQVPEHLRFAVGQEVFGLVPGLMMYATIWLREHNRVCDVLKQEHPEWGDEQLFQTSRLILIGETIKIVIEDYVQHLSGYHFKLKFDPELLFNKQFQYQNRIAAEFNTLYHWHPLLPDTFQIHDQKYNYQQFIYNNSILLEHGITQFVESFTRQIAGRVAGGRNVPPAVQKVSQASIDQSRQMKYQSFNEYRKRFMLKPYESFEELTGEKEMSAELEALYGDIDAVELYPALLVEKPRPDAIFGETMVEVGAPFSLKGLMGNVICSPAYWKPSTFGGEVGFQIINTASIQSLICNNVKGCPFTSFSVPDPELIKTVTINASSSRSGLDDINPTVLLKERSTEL

[1] = biological target: bovine serum albumin (BSA) (Bos taurus, UniProt P02769); conditions: mean ± SE, three replicates; also: test concentration or dose not given here
Chain of bovine serum albumin (BSA) (P02769 25-607): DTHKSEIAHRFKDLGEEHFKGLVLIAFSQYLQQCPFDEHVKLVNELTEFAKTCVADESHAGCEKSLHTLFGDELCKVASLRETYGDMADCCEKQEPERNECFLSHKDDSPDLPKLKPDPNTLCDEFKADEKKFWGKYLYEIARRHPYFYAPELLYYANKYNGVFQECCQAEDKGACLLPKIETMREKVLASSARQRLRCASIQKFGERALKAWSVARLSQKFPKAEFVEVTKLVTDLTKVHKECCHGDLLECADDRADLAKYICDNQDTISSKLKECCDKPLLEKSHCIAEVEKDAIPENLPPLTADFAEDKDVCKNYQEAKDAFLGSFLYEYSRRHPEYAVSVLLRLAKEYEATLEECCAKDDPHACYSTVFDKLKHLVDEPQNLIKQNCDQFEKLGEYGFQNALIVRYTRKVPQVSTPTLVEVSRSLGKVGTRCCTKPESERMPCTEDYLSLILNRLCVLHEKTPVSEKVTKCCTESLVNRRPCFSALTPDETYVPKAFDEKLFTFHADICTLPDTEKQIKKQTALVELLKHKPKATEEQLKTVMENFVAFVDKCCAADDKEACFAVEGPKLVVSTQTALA

5-LOX = biological target: T3, 5-LOX (Homo sapiens, UniProt P09917); assay: 5-Lipoxygenase inhibition assay (kit); conditions: for 5-LOX Inhibition (%): mean ± SE, three replicates; as to 5-LOX Inhibition (%): test concentration or dose not given here
T3 sequence (P09917 1-674): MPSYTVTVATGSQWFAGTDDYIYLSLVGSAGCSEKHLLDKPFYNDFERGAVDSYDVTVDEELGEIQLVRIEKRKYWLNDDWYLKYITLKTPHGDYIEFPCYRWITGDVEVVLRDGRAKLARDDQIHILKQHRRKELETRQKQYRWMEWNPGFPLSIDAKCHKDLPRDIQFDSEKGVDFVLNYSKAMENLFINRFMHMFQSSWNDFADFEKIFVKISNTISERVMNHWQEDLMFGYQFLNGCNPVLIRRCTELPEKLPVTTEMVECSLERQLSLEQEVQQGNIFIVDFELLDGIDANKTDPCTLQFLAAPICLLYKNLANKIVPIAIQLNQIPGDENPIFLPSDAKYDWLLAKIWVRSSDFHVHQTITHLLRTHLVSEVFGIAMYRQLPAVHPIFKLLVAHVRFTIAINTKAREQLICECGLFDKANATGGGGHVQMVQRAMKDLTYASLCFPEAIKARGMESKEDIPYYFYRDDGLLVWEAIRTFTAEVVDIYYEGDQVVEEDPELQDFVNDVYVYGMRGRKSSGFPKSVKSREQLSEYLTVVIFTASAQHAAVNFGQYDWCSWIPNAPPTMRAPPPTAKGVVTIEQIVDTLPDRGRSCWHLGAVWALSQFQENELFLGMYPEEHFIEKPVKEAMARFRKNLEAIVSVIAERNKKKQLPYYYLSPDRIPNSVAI

α-amylase enzyme = biological target: α-amylase enzyme; parameters: method as in PMID 34600331; conditions: cited from earlier work
[2] = system: pancreatic cancer (PaCa-2) cells; parameters: method as in PMID 39193301; conditions: cited from earlier work
[3] = parameters: method as in PMID 39143406; conditions: cited from earlier work
COX-2 enzyme = biological target: COX-2 enzyme; parameters: method as in PMID 39143406; conditions: cited from earlier work
α-glucosidase enzyme = biological target: α-glucosidase enzyme; parameters: method as in PMID 38225280; conditions: cited from earlier work
α-glucosidase = α-glucosidase (Saccharomyces cerevisiae, UniProt P53341); assay: α-glucosidase inhibition assay (pNPG); assay type: biochemical; conditions: mean ± SE, three replicates
Chain of α-glucosidase (P53341 whole entry): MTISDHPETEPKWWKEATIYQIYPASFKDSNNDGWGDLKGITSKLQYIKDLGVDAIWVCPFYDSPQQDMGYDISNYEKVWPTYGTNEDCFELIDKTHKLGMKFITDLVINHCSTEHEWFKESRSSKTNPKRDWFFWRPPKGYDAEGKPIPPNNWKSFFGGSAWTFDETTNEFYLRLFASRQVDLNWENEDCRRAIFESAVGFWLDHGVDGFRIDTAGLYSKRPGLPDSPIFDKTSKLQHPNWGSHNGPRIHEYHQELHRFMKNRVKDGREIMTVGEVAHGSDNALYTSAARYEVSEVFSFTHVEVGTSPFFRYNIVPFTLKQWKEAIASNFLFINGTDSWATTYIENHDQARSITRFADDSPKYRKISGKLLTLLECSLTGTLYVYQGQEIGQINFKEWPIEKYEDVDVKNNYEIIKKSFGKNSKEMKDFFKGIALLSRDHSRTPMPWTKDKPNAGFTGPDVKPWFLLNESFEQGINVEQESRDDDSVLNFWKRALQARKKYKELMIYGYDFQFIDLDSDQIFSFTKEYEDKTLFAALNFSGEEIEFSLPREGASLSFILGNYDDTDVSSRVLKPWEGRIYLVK
Experimental: In vitro enzymatic assessments
The mixture was then left at
The absorbance was measured
the enzymatic activity. […] The IC50

[4] = biological target: cyclooxygenase-2 (COX-2) enzyme; parameters: method as in PMID 37985602; conditions: cited from earlier work
[5] = biological target: cyclooxygenase-1 (COX-1) enzyme; parameters: method as in PMID 37985602; conditions: cited from earlier work
diabetic mice = system: diabetic mice; parameters: method as in PMID 38029465; conditions: cited from earlier work
[6] = parameters: method as in doi:10.1007/s11164-024-05318-1; conditions: read-out: antioxidant activities IC50; cited from earlier work

CCN1C(=O)/C(=N\c2[nH]nc(Nc3ccccc3)c2C(=O)Nc2ccc(C)cc2)c2ccccc21 [12f]
IC50 (COX-1): 43.2 µM
COX-1 Inhibition (%) (COX-1): 18.91 ± 0.04%
COX-2 Inhibition (%) (COX-2): 21.16 ± 0.04%
IC50 (COX-2): 39.4 µM
Protein Denaturation Inhibition (%) [1]: 15.36 ± 0.03%
IC50 (5-LOX): 44 µM
5-LOX Inhibition (%) (5-LOX): 11.01 ± 0.04%

CCN1C(=O)C(=Nc2[nH]nc(Nc3ccccc3)c2C(=O)Nc2ccccc2)c2ccccc21 [12e]
IC50 (COX-1): 47.8 µM
COX-1 Inhibition (%) (COX-1): 17.62 ± 0.04%
COX-2 Inhibition (%) (COX-2): 19.87 ± 0.04%
IC50 (COX-2): 43.3 µM
Protein Denaturation Inhibition (%) [1]: 14.50 ± 0.03%
IC50 (5-LOX): 48 µM
5-LOX Inhibition (%) (5-LOX): 9.72 ± 0.04%

COc1ccc(Nc2n[nH]c(N=C3C(=O)N(C)c4ccccc43)c2C(=O)Nc2ccccc2)cc1 [12c]
IC50 (COX-1): 38.8 µM
COX-1 Inhibition (%) (COX-1): 20.98 ± 0.04%
COX-2 Inhibition (%) (COX-2): 23.23 ± 0.04%
IC50 (COX-2): 35.8 µM
Protein Denaturation Inhibition (%) [1]: 16.73 ± 0.03%
IC50 (5-LOX): 40.4 µM
5-LOX Inhibition (%) (5-LOX): 13.08 ± 0.04%

CCC(=O)CN1C(=O)/C(=N/NC(=O)c2ccc(Br)cc2)c2ccccc21 [compound 4]
α-amylase IC50 (α-amylase enzyme): 19.6 µg/mL

CN1C(=O)C(=Nc2[nH]nc(Nc3ccccc3)c2C(=O)Nc2ccccc2)c2ccccc21 [12a]
IC50 (COX-1): 49.8 µM
COX-1 Inhibition (%) (COX-1): 17.47 ± 0.04%
COX-2 Inhibition (%) (COX-2): 19.72 ± 0.04%
IC50 (COX-2): 45 µM
Protein Denaturation Inhibition (%) [1]: 14.40 ± 0.03%
IC50 (5-LOX): 49.9 µM
5-LOX Inhibition (%) (5-LOX): 9.57 ± 0.04%

Cc1ccc(NC(=O)c2c(Nc3ccccc3)n[nH]c2N=Cc2c[nH]c3ccccc23)cc1 [14b]
IC50 (COX-1): 12.5 µM
COX-1 Inhibition (%) (COX-1): 69.83 ± 0.26%
COX-2 Inhibition (%) (COX-2): 72.08 ± 0.26%
IC50 (COX-2): 12.4 µM
Protein Denaturation Inhibition (%) [1]: 49.30 ± 0.17%
IC50 (5-LOX): 17.3 µM
5-LOX Inhibition (%) (5-LOX): 61.93 ± 0.26%

O=C(Nc1ccccc1)c1c(Nc2ccccc2)n[nH]c1N=Cc1c[nH]c2ccccc12 [14a]
IC50 (COX-1): 17.1 µM
COX-1 Inhibition (%) (COX-1): 52.79 ± 0.26%
COX-2 Inhibition (%) (COX-2): 55.04 ± 0.26%
IC50 (COX-2): 16.7 µM
Protein Denaturation Inhibition (%) [1]: 37.94 ± 0.17%
IC50 (5-LOX): 21.9 µM
5-LOX Inhibition (%) (5-LOX): 44.89 ± 0.26%

CCc1nn(-c2ccc([N+](=O)[O-])cc2)c(C)c1C(=O)/C=C/c1ccccc1 [compound 3]
PaCa-2 cells IC50 [2]: 13.0 µg/mL
cell cycle effect in treated PaCa-2 cells [2]: induces cell cycle arrest at the S and G2/M phases

COc1ccc(Nc2n[nH]c(N=C3C(=O)N(C)c4ccccc43)c2C(=O)Nc2ccc(C)cc2)cc1 [12d]
IC50 (COX-1): 38 µM
COX-1 Inhibition (%) (COX-1): 20.80 ± 0.04%
COX-2 Inhibition (%) (COX-2): 23.05 ± 0.04%
IC50 (COX-2): 35 µM
Protein Denaturation Inhibition (%) [1]: 16.62 ± 0.03%
IC50 (5-LOX): 39.4 µM
5-LOX Inhibition (%) (5-LOX): 12.90 ± 0.04%

Cc1ccc(NS(=O)(=O)c2ccc(-c3csc(N/N=C4\C(=O)Nc5ccc(Cl)cc54)n3)cc2)cc1 [compound 6]
edema inhibition (EI) [3]: 38.50%
IC50 (COX-2 enzyme): 8.26 µM
selectivity against COX-2 (SI) (COX-2 enzyme): 2.65

CCN1C(=O)C(=Nc2[nH]nc(Nc3ccc(OC)cc3)c2C(=O)Nc2ccccc2)c2ccccc21 [12g]
IC50 (COX-1): 37.4 µM
COX-1 Inhibition (%) (COX-1): 21.15 ± 0.04%
COX-2 Inhibition (%) (COX-2): 23.40 ± 0.04%
IC50 (COX-2): 34.4 µM
Protein Denaturation Inhibition (%) [1]: 16.85 ± 0.03%
IC50 (5-LOX): 38.9 µM
5-LOX Inhibition (%) (5-LOX): 13.25 ± 0.04%

Cc1cc(-c2nnc(S)n2N)n[nH]1 [compound 1]
IC50 (α-glucosidase enzyme): 95.85 ± 0.92 µM

C[C@H]1O[C@H](O[C@H]2[C@H](O)[C@@H](O)[C@@H](O[C@H]3[C@H](O)[C@@H](O)C(O)O[C@@H]3CO)O[C@@H]2CO)[C@H](O)[C@@H](O)[C@@H]1N[C@H]1C=C(CO)[C@@H](O)[C@H](O)[C@H]1O (stereo partly shown) [Acarbose]
α-Glucosidase Inhibition (%) (α-glucosidase): 62.33 ± 0.16%

O=C(Nc1cc(-c2ccccc2)nn1-c1ccccc1)c1ccc(/C=C/C(=O)c2ccc(Cl)s2)cc1 [compound 2]
IC50 [4]: 1.76 µM
IC50 [5]: 10.2 µM

COc1ccc(Nc2n[nH]c(N=Cc3c[nH]c4ccccc34)c2C(=O)Nc2ccc(C)cc2)cc1 [14d]
IC50 (COX-1): 22.9 µM
COX-1 Inhibition (%) (COX-1): 35.63 ± 0.26%
COX-2 Inhibition (%) (COX-2): 37.88 ± 0.26%
IC50 (COX-2): 22 µM
Protein Denaturation Inhibition (%) [1]: 26.50 ± 0.17%
IC50 (5-LOX): 26.7 µM
5-LOX Inhibition (%) (5-LOX): 27.73 ± 0.26%

Cc1ccc(/C=C2\SC(=O)N(CC(=O)NCCc3c[nH]c4ccccc34)C2=O)cc1 [compound 7]
glucose levels in diabetic mice (diabetic mice): suppressed glucose levels in diabetic mice

CCN1C(=O)C(=Nc2[nH]nc(Nc3ccc(OC)cc3)c2C(=O)Nc2ccc(C)cc2)c2ccccc21 [12h]
IC50 (COX-1): 37.3 µM
COX-1 Inhibition (%) (COX-1): 20.56 ± 0.04%
COX-2 Inhibition (%) (COX-2): 22.81 ± 0.04%
IC50 (COX-2): 34.3 µM
Protein Denaturation Inhibition (%) [1]: 16.45 ± 0.03%
IC50 (5-LOX): 38.7 µM
5-LOX Inhibition (%) (5-LOX): 12.66 ± 0.04%

COc1cc(C=NNC(=S)NN=C2C(=O)Nc3ccc(I)cc32)ccc1O [compound 5]
IC50 [6]: 9.76 ± 0.03 µM

CC(c1cc2ccccc2s1)N(O)C(N)=O (stereo not shown) [Zileuton, reference compound]
5-LOX Inhibition (%) (5-LOX): 72.61 ± 0.07%

Cc1ccc(NC(=O)c2c(Nc3ccccc3)n[nH]c2N=C2C(=O)N(C)c3ccccc32)cc1 [12b]
IC50 (COX-1): 44.9 µM
COX-1 Inhibition (%) (COX-1): 18.75 ± 0.04%
COX-2 Inhibition (%) (COX-2): 21.00 ± 0.04%
IC50 (COX-2): 40.9 µM
Protein Denaturation Inhibition (%) [1]: 15.25 ± 0.03%
IC50 (5-LOX): 45.7 µM
5-LOX Inhibition (%) (5-LOX): 10.85 ± 0.04%

COc1ccc(Nc2n[nH]c(N=Cc3c[nH]c4ccccc34)c2C(=O)Nc2ccccc2)cc1 [14c]
IC50 (COX-1): 24 µM
COX-1 Inhibition (%) (COX-1): 35.07 ± 0.26%
COX-2 Inhibition (%) (COX-2): 37.32 ± 0.26%
IC50 (COX-2): 23 µM
Protein Denaturation Inhibition (%) [1]: 26.13 ± 0.17%
IC50 (5-LOX): 27.8 µM
5-LOX Inhibition (%) (5-LOX): 27.17 ± 0.26%
